Usually pKi stands for the Ki on a negative log10 scale, so that one unit is a factor of ten.

The target of this experiment is T1, human FAAH (Homo sapiens, UniProt O00519).
T1 construct: host or cells: COS-7 cells, transient transfection (FuGENE 6); 13,000 g membrane fraction solubilised in 1% Triton X-100
T1 sequence (O00519 1-579): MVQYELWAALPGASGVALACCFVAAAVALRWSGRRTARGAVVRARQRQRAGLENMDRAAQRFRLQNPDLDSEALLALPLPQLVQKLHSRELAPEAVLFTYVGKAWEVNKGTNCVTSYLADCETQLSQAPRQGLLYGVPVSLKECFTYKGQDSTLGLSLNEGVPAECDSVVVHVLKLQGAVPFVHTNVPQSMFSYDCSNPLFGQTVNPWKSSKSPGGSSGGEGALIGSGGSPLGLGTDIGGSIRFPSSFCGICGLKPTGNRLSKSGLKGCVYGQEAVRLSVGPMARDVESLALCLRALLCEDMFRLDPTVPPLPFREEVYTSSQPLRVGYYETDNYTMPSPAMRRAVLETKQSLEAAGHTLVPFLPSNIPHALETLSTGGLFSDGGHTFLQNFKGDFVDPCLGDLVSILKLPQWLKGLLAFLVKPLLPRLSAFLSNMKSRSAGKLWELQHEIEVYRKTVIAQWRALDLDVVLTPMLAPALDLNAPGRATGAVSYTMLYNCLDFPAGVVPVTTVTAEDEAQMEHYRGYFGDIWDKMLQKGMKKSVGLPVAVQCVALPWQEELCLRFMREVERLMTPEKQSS
In words: Human FAAH biochemical inhibition assay (AMC arachidonoyl amide fluorescence). The procedure: Exemplary compounds are set forth in the Examples provided below. Compounds were assayed as inhibitors of human FAAH using the method described in detail in Example 286.
The following assays may be used to determine the inhibition of FAAH by the compounds of the present invention: (1) a fluorescence-based assay for fatty acid amide hydrolase compatible with high-throughput screening as described in Manjunath et al., Analytical Biochemistry (2005) 343:143-151; and (2) a high-throughput screening for the discovery of inhibitors of fatty acid amide hydrolase using a microsome-based fluorescent assay. Wang et al., Biomolecular Screening (2006) 1-9.
COS-7 cells were split the day before, 1:5 into 150 mm×25 mm cell culture dishes (Corning Inc., Cat. No. 430599). Transient transfection took place at 30-40% confluency according to FuGENE 6 Transfection Reagent (Roche, Cat. No. 11814 443 001).
The FuGENE transfection 6 reagent (45 uL) was added to 1410 μL of media (DMEM, serum free without pen/strep) in a 15 mL conical tube and incubated at room temp for 5 minutes, followed by the addition of FAAH plasmid DNA (15 μg) (OriGene Cat. No. TC119221, Genbank Accession No. NM_001441.1, 0.67 ug/uL) and a further incubation of 15 minutes at room temperature. The resulting solution was added into one dish of 30-40% confluent COS-7 cells in a drop-wise manner. The COS-7 cell dish was subsequently incubated for 48 hours. The cells are then harvested.
Media was aspirated from the dishes and the cells rinsed with 10 mL PBS. The PBS was removed and 3 mL of PBS added to the dish. The dish was scraped to resuspend the cells, and the subsequent cell suspension collected into a 15 mL conical tube. The cells were pelleted by centrifugation at 1200 rpm for 5 minutes in a bench top centrifuge. PBS was removed and the cell pellet snap frozen in liquid nitrogen and stored at −80° C.
COS-7 Cells—FAAH Purification: • (1) Fractionation: Frozen cell pellets from transient transfections were thawed on ice and resuspended in 12.5 mM Hepes pH 8.0, 100 mM NaCl, 1 mM EDTA (10 mL/0.2 g cell pellet). The pellets were dounce homogenized and then sonicated to produce cell extract. The cell extract was subsequently centrifuged at 1000 g to remove cellular debris. The pellet was discarded and the supernatant centrifuged at 13,000 g for 20 minutes. The pellet contained membrane bound FAAH. The supernatant was discarded and the pellet resolubilized. • (2) Re-solubilization: The fraction of interest, (13,000 g, membrane fraction) was re-suspended in 2.3 mL re-suspension buffer (20 mM Hepes pH 7.8, 10% v/v Glycerol, 1 mM EDTA, 1% Triton X-100) and the sample incubated on ice for 1 hour and then centrifuged to remove any particulate matter. The supernatant containing solubilized human FAAH was aliquoted and snap frozen in liquid nitrogen and stored at −80° C. until use. • (3) Characterization: Protein Concentration determined by Bradford assay. • SDS gel and Western blot to confirm presence of FAAH • FAAH activity assay • Km determination—96-well assay • Linear dependence—96-well assay • Standard compound Ki determination—384-well assay
Rat FAAH biochemical assays were carried out in a 96 well flat bottom black non-treated polystyrene plates (Corning Costar Catalogue #3915). FAAH reaction buffer: 50 mM Hepes (pH 7.5), 1 mM EDTA, 0.2% Triton X-100. FAAH substrate—AMC Arachidonoyl Amide (Cayman Chemicals Company, Catalog #10005098). The reaction was read in an Envision microtiter plate reader [Excitation filter 355 nm (40 nm bandpass); Emmision filter 460 nm (25 nm bandpass)]. The raw fluorescence was plotted on the y axis and the inhibitor concentration on the x axis to give a dose response inhibition curve. The data was fitted to a single site competitive inhibition equation, fixing the Km for the rat and human enzyme to 12 μM and 9 μM respectively. […]

Where [1] appears, read: class given in each Example, read-out: Activity (Ki, inhibition of human FAAH).

The structures appear in SMILES notation. pKi: −log10 of the molar value. Like-named read-outs stand apart in the source and are kept apart here.

Consider `CCOc1ccc2cc(B(O)O)ccc2n1` [Compound 203], for which the negative logarithm of the Ki (pKi) under setting [1] is 7.00 to 8.00.
Still for that read-out and setting: then `CCOCc1nnc(-c2ccc(B(O)O)cc2)o1` [Compound 74], with 7.00 to 8.00; and `CC(C)Cn1cc(B(O)O)cn1` [Compound 220], with 6.00 to 7.00; and `Cn1cncc1-c1nnc(-c2cc(OCCc3ccccc3)ccc2B(O)O)o1` [Compound 268], with 7.00 to 8.00.
The same measure, in the same setting: then `OB(O)c1ccc(-c2nnc(Cc3ccsc3)o2)cc1` [Compound 59], with at least 8.00; and `O=C(c1ccccc1)c1ccc2cc(B(O)O)ccc2n1` [Compound 319], with at least 8.00; and `OB(O)c1ccc2nc(Oc3ccccc3Cl)ccc2c1` [Compound 196], with at least 8.00.
On to `CCCc1nnc(-c2ccccc2B(O)O)s1` [Compound 266], for which, under setting [1], the pKi is under 6.00.
On to `CCCCCC1(C)CC(c2ccc(B(O)O)cc2)=NO1` (centres unmarked) [Compound 162], for which the negative logarithm of the Ki (pKi) under setting [1] is at least 8.00.
Regarding `CCCc1nnc(-c2ccccc2B(O)O)o1` [Compound 13], under setting [1], the negative-log Ki (pKi) was under 6.00.
The same measure, in the same setting: with `CCCCOc1ccc(B(O)O)c(-c2nnc(C)o2)c1` [Compound 272] the figure was 7.00 to 8.00; with `OB(O)c1ccc2cc(Oc3ccccc3)ccc2c1` [Compound 216], at least 8.00.
`CCC/C=C/c1nnc(-c2ccc(B(O)O)cc2)o1` [Compound 25]: under setting [1], the pKi was at least 8.00.
For `OB(O)c1ccc(-c2nnc(-c3cncc(F)c3)o2)cc1` [Compound 41], the pKi under setting [1] was 7.00 to 8.00.
As for `CC/C=C/c1cc(OCCc2ccccc2)ccc1B(O)O` [Compound 183], under setting [1], the negative-log Ki (pKi) was 7.00 to 8.00.
Still for that read-out and setting: with `Cc1nc2cc(B(O)O)ccc2s1` [Compound 88] the figure was 6.00 to 7.00; with `COc1cccc(Cn2cc(-c3ccc(B(O)O)cc3)nn2)c1` [Compound 128], 7.00 to 8.00; with `CC(C)c1ccc(CN2CCC(Cc3nc4ccc(B(O)O)cc4o3)CC2)cc1` [Compound 301], 7.00 to 8.00.
As for `CN(C)c1cccc(Oc2ccc3cc(B(O)O)ccc3n2)c1` [Compound 194], the pKi under setting [1] is at least 8.00.
The same measure, in the same setting: then `OB(O)c1ccc(-c2nnc(CC3CCCC3)o2)cc1` [Compound 35], with at least 8.00.
Same read-out and setting: with `OB(O)c1ccc(-c2nnc(Cc3ccccc3)o2)cc1` [Compound 70] the figure was at least 8.00; with `OB(O)c1ccc(C2CC(c3ccccc3)=NO2)cc1` (centres unmarked) [Compound 152], at least 8.00.
As to `COCCNC(=O)c1ccc(B(O)O)cc1`, the pKi (Table A, read-out: Activity (Ki) of other boronic acids tested, Table A) was 6.00 to 7.00.
Turning to `OB1c2ccc(OCc3ccccc3)cc2C=NN1Cc1ccccc1` [Compound 109], under setting [1], the negative-log Ki (pKi) was 7.00 to 8.00.
On to `OB(O)c1ccc(OCc2ccccc2)cc1CNCc1ccccc1` [Compound 111], for which, under setting [1], the negative logarithm of the Ki (pKi) was 6.00 to 7.00.
Still for that read-out and setting: then `CCCCOc1ccc2c(c1)C=NOB2O` [Compound 277], with 6.00 to 7.00; and `OB(O)c1ccc(-c2nnc(-c3cccnc3)o2)cc1` [Compound 21], with at least 8.00; and `OB(O)c1ccc([C@H]2OC[C@H](c3ccccc3)CO2)cc1` [Compound 175], with at least 8.00.
The same measure, in the same setting: then `OB(O)c1ccccc1-c1nnc(CCc2ccccc2)o1` [Compound 265], with under 6.00; and `CN(Cc1ccccc1)c1ccc2cc(B(O)O)ccc2n1` [Compound 204], with at least 8.00; and `N#Cc1cccc(Oc2ccc3cc(B(O)O)ccc3n2)c1` [Compound 198], with at least 8.00.
Still for that read-out and setting: then `CCCc1nnc(-c2c(F)cccc2B(O)O)o1` [Compound 262], with under 6.00; and `O=C(CCc1nc2ccc(B(O)O)cc2o1)N1CCCCC1` [Compound 247], with 7.00 to 8.00; and `CC(C)(O)c1nnc(-c2ccc(B(O)O)cc2)o1` [Compound 73], with 7.00 to 8.00.
For `CCCCCc1nnc(-c2coc(B(O)O)c2)o1` [Compound 60], the pKi under setting [1] was 7.00 to 8.00.
Consider `CCCC1(c2ccccc2)CC(c2ccc(B(O)O)cc2)=NO1` (centres unmarked) [Compound 163], for which the pKi under setting [1] was 6.00 to 7.00.
With `OB(O)c1ccc2nc(N3CCCc4ccccc43)ccc2c1` [Compound 207], the pKi under setting [1] is 7.00 to 8.00.
In the case of `OB(O)c1ccc(-n2cc(-c3ccccc3)nn2)cc1F` [Compound 141], under setting [1], the pKi was 7.00 to 8.00.
Take `CN(CCc1ccc(B(O)O)c(F)c1)C(=O)OC(C)(C)C` [Compound 311]: under setting [1], the negative logarithm of the Ki (pKi) was at least 8.00.
As for `OB(O)c1ccc(-c2nnc(-c3ccccc3)o2)s1` [Compound 56], the negative-log Ki (pKi) under setting [1] is 7.00 to 8.00.
Still for that read-out and setting: then `CCCc1cnc(-c2cc(OCCc3ccccc3)ccc2B(O)O)s1` [Compound 276], with 7.00 to 8.00.
The same measure, in the same setting: then `CC(C)(C)OC(=O)N1CCC(c2ccc(B(O)O)cc2)CC1` [Compound 233], with at least 8.00.
Take `CCCc1nnc(-c2cc(Oc3cccnc3)ccc2B(O)O)o1` [Compound 296]: the negative-log Ki (pKi) under setting [1] is 7.00 to 8.00.
On the same count and under the same terms, with `CCCc1nnc(-c2ccc(B(O)O)cc2)o1` [Compound 39] the figure was at least 8.00.
Same read-out and setting: with `OB(O)c1ccccc1-c1nnc(CCC(F)(F)F)o1` [Compound 285] the figure was under 6.00; with `Cc1nnc(-c2cc(OCCc3ccccc3)ccc2B(O)O)o1` [Compound 19], at least 8.00.
Same read-out and setting: with `OB(O)c1ccc(OCCc2ccccc2)cc1-c1nnc(-c2ccco2)o1` [Compound 18] the figure was at least 8.00; with `OB(O)c1ccc(OCCc2ccccc2)cc1/C=C/CCc1ccccc1` [Compound 184], 6.00 to 7.00; with `OB(O)c1ccc([C@@H]2OC[C@@H](c3ccccc3)O2)cc1` [Compound 181], at least 8.00.
With `OB(O)c1ccc(-c2cn(Cc3ccccc3)nn2)cc1` [Example 117], the negative logarithm of the Ki (pKi) under setting [1] is at least 8.00.
Take `O=C1CCCN1CCc1nnc(-c2ccccc2B(O)O)o1` [Compound 263]: the pKi under setting [1] is under 6.00.
`O=S(=O)(c1ccccc1)N1CCC(c2ccc(B(O)O)cc2)CC1` [Compound 236]: the negative logarithm of the Ki (pKi) under setting [1] was 7.00 to 8.00.
Turning to `CN1N=Cc2cc(OCCc3ccccc3)ccc2B1O` [Compound 108], under setting [1], the negative logarithm of the Ki (pKi) is under 6.00.
Still for that read-out and setting: then `OB(O)c1ccc2nc(CCc3ccccc3)oc2c1` [Compound 243], with at least 8.00.
The same measure, in the same setting: with `OB(O)c1ccc(-n2cc(-c3ccccc3)cn2)cc1` [Compound 231] the figure was at least 8.00; with `O=C(CCc1ccccc1)N/N=C/c1ccccc1B(O)O` [Compound 116], under 6.00; with `CN(CCc1ccc(B(O)O)c(F)c1)S(=O)(=O)c1ccccc1` [Compound 312], at least 8.00.
`OB(O)c1ccc(-c2nnc(-c3ccc4c(c3)OCO4)o2)cc1` [Compound 45]: the pKi under setting [1] is at least 8.00.
In the case of `OB(O)c1ccc(Cc2nnc(-c3ccccc3)o2)cc1` [Compound 64], under setting [1], the negative-log Ki (pKi) was 7.00 to 8.00.
